From the NIST ThermoML archive (doi:10.1021/je8008182)
± gives the expanded uncertainty stated by the source.

Assay: xn = mol fraction of the nth substance listed
Settings: 101 kPa, Liquid; for viscosity: Capillary tube (Ostwald / Ubbelohde) method; for mass density: Pycnometric method

SMILES: Cc1ccncc1 [4-methylpyridine] + O
- viscosity (298.15 K, x1 = 0.0211): 1.172 ± 0.01 mPa·s
- viscosity (298.15 K, x1 = 0.0489): 1.499 ± 0.013 mPa·s
- viscosity (298.15 K, x1 = 0.1143): 2.141 ± 0.017 mPa·s
- viscosity (298.15 K, x1 = 0.225): 2.602 ± 0.021 mPa·s
- viscosity (298.15 K, x1 = 0.3111): 2.521 ± 0.022 mPa·s
- viscosity (298.15 K, x1 = 0.4): 2.202 ± 0.021 mPa·s
- viscosity (298.15 K, x1 = 0.5): 1.88 ± 0.017 mPa·s
- viscosity (298.15 K, x1 = 0.6353): 1.539 ± 0.015 mPa·s
- viscosity (298.15 K, x1 = 0.75): 1.379 ± 0.013 mPa·s
- viscosity (298.15 K, x1 = 0.9): 1.09 ± 0.0097 mPa·s
- viscosity (298.15 K, x1 = 1): 0.8723 ± 0.0077 mPa·s
- mass density (298.15 K, x1 = 0.0211): 996.2 ± 0.4 kg/m3
- mass density (298.15 K, x1 = 0.0489): 993.6 ± 0.5 kg/m3
- mass density (298.15 K, x1 = 0.1143): 991.3 ± 0.5 kg/m3
- mass density (298.15 K, x1 = 0.225): 984.8 ± 0.8 kg/m3
- mass density (298.15 K, x1 = 0.3111): 983 ± 0.6 kg/m3
- mass density (298.15 K, x1 = 0.4): 978.9 ± 0.9 kg/m3
- mass density (298.15 K, x1 = 0.5): 970.4 ± 1 kg/m3
- mass density (298.15 K, x1 = 0.6353): 964.1 ± 0.8 kg/m3
- mass density (298.15 K, x1 = 0.75): 961.4 ± 0.8 kg/m3
- mass density (298.15 K, x1 = 0.9): 958.7 ± 0.7 kg/m3
- mass density (298.15 K, x1 = 1): 955.4 ± 0.7 kg/m3
- viscosity (303.15 K, x1 = 0.0211): 1.037 ± 0.0098 mPa·s
- viscosity (303.15 K, x1 = 0.0489): 1.325 ± 0.012 mPa·s
- viscosity (303.15 K, x1 = 0.1143): 1.844 ± 0.018 mPa·s
- viscosity (303.15 K, x1 = 0.225): 2.238 ± 0.021 mPa·s
- viscosity (303.15 K, x1 = 0.3111): 2.164 ± 0.02 mPa·s
- viscosity (303.15 K, x1 = 0.4): 1.904 ± 0.017 mPa·s
- viscosity (303.15 K, x1 = 0.5): 1.657 ± 0.014 mPa·s
- viscosity (303.15 K, x1 = 0.6353): 1.381 ± 0.012 mPa·s
- viscosity (303.15 K, x1 = 0.75): 1.16 ± 0.011 mPa·s
- viscosity (303.15 K, x1 = 0.9): 0.9871 ± 0.01 mPa·s
- viscosity (303.15 K, x1 = 1): 0.8175 ± 0.0073 mPa·s
- mass density (303.15 K, x1 = 0.0211): 994.2 ± 0.4 kg/m3
- mass density (303.15 K, x1 = 0.0489): 991.2 ± 0.5 kg/m3
- mass density (303.15 K, x1 = 0.1143): 987.9 ± 0.6 kg/m3
- mass density (303.15 K, x1 = 0.225): 981.2 ± 0.6 kg/m3
- mass density (303.15 K, x1 = 0.3111): 978.7 ± 0.7 kg/m3
- mass density (303.15 K, x1 = 0.4): 972.1 ± 0.7 kg/m3
- mass density (303.15 K, x1 = 0.5): 965.4 ± 0.5 kg/m3
- mass density (303.15 K, x1 = 0.6353): 959.8 ± 0.7 kg/m3
- mass density (303.15 K, x1 = 0.75): 956.4 ± 0.8 kg/m3
- mass density (303.15 K, x1 = 0.9): 953.8 ± 1 kg/m3
- mass density (303.15 K, x1 = 1): 951.1 ± 1.1 kg/m3
- viscosity (308.15 K, x1 = 0.0211): 0.9037 ± 0.0084 mPa·s
- viscosity (308.15 K, x1 = 0.0489): 1.165 ± 0.011 mPa·s
- viscosity (308.15 K, x1 = 0.1143): 1.58 ± 0.015 mPa·s
- viscosity (308.15 K, x1 = 0.225): 1.924 ± 0.018 mPa·s
- viscosity (308.15 K, x1 = 0.3111): 1.9 ± 0.018 mPa·s
- viscosity (308.15 K, x1 = 0.4): 1.789 ± 0.015 mPa·s
- viscosity (308.15 K, x1 = 0.5): 1.595 ± 0.013 mPa·s
- viscosity (308.15 K, x1 = 0.6353): 1.247 ± 0.011 mPa·s
- viscosity (308.15 K, x1 = 0.75): 1.068 ± 0.0095 mPa·s
- viscosity (308.15 K, x1 = 0.9): 0.7846 ± 0.0083 mPa·s
- viscosity (308.15 K, x1 = 1): 0.7774 ± 0.0069 mPa·s
- mass density (308.15 K, x1 = 0.0211): 992.1 ± 0.5 kg/m3
- mass density (308.15 K, x1 = 0.0489): 988.3 ± 0.5 kg/m3
- mass density (308.15 K, x1 = 0.1143): 984.5 ± 0.6 kg/m3
- mass density (308.15 K, x1 = 0.225): 977.6 ± 0.7 kg/m3
- mass density (308.15 K, x1 = 0.3111): 974.2 ± 0.7 kg/m3
- mass density (308.15 K, x1 = 0.4): 970.7 ± 0.6 kg/m3
- mass density (308.15 K, x1 = 0.5): 964.9 ± 0.5 kg/m3
- mass density (308.15 K, x1 = 0.6353): 955.3 ± 0.8 kg/m3
- mass density (308.15 K, x1 = 0.75): 950.5 ± 0.8 kg/m3
- mass density (308.15 K, x1 = 0.9): 946 ± 0.9 kg/m3
- mass density (308.15 K, x1 = 1): 941.3 ± 1.1 kg/m3
- viscosity (313.15 K, x1 = 0.0211): 0.8272 ± 0.0074 mPa·s
- viscosity (313.15 K, x1 = 0.0489): 1.044 ± 0.0095 mPa·s
- viscosity (313.15 K, x1 = 0.1143): 1.4 ± 0.013 mPa·s
- viscosity (313.15 K, x1 = 0.225): 1.682 ± 0.016 mPa·s
- viscosity (313.15 K, x1 = 0.3111): 1.649 ± 0.016 mPa·s
- viscosity (313.15 K, x1 = 0.4): 1.561 ± 0.015 mPa·s
- viscosity (313.15 K, x1 = 0.5): 1.419 ± 0.013 mPa·s
- viscosity (313.15 K, x1 = 0.6353): 1.129 ± 0.01 mPa·s
- viscosity (313.15 K, x1 = 0.75): 0.9708 ± 0.0088 mPa·s
- viscosity (313.15 K, x1 = 0.9): 0.7395 ± 0.0066 mPa·s
- viscosity (313.15 K, x1 = 1): 0.7368 ± 0.0067 mPa·s
- mass density (313.15 K, x1 = 0.0211): 990 ± 0.5 kg/m3
- mass density (313.15 K, x1 = 0.0489): 986 ± 0.5 kg/m3
- mass density (313.15 K, x1 = 0.1143): 980.9 ± 0.6 kg/m3
- mass density (313.15 K, x1 = 0.225): 973.2 ± 0.7 kg/m3
- mass density (313.15 K, x1 = 0.3111): 969.5 ± 0.7 kg/m3
- mass density (313.15 K, x1 = 0.4): 965.9 ± 0.8 kg/m3
- mass density (313.15 K, x1 = 0.5): 960.5 ± 0.7 kg/m3
- mass density (313.15 K, x1 = 0.6353): 950.5 ± 0.8 kg/m3
- mass density (313.15 K, x1 = 0.75): 945.9 ± 0.7 kg/m3
- mass density (313.15 K, x1 = 0.9): 941.6 ± 0.7 kg/m3
- mass density (313.15 K, x1 = 1): 936.6 ± 0.8 kg/m3
- viscosity (318.15 K, x1 = 0.0211): 0.7494 ± 0.0069 mPa·s
- viscosity (318.15 K, x1 = 0.0489): 0.9363 ± 0.0085 mPa·s
- viscosity (318.15 K, x1 = 0.1143): 1.234 ± 0.011 mPa·s
- viscosity (318.15 K, x1 = 0.225): 1.467 ± 0.014 mPa·s
- viscosity (318.15 K, x1 = 0.3111): 1.441 ± 0.013 mPa·s
- viscosity (318.15 K, x1 = 0.4): 1.365 ± 0.013 mPa·s
- viscosity (318.15 K, x1 = 0.5): 1.263 ± 0.011 mPa·s
- viscosity (318.15 K, x1 = 0.6353): 1.019 ± 0.009 mPa·s
- viscosity (318.15 K, x1 = 0.75): 0.8874 ± 0.0081 mPa·s
- viscosity (318.15 K, x1 = 0.9): 0.6952 ± 0.0063 mPa·s
- viscosity (318.15 K, x1 = 1): 0.6855 ± 0.0063 mPa·s
